Measured values taken from US10815232B2, “Crystalline forms of viral-protein inhibitor drug VX-787, processes for preparation thereof and use thereof” (Crystal Pharmaceutical (Suzhou) Co., Ltd., priority 2017, dated 2020).
Converted amounts (≈) assume the structure as drawn. “Also recorded” adds a separate entry of the source. Structures can show the parent of a compound that is named as a salt.

Columns and labels:
[1] = Storage stability of crystalline forms (XRPD, HPLC); format: physicochemical; settings: for Purity after storage: initial purity 99.24%; for purities after storage: all storage conditions tested for the form
Experimental: The hydrochloride Form CS1 prepared by the present disclosure was stored under 25° C./60% RH and 40° C./75% RH for 1 month. The crystalline forms were checked by XRPD before and after storing.
(§1) Three samples of hydrochloride Form CS3 prepared by the present disclosure were stored in open dishes under conditions of 25° C./60% RH, 40° C./75% RH for 1 month, and 60° C./75% relative humidity for 2 weeks. The crystalline forms and the chemical purities were checked by XRPD and HPLC before and after storing.
as §1, with “CS4” for “CS3”, “RH for two weeks,” for “RH,”, “HPLC respectively” for “HPLC”
[…] The crystalline forms and chemical purities were checked by HPLC and XRPD before and after storing.

[2] = Dynamic solubility in FaSSIF and FeSSIF (Example 22); format: physicochemical
Experimental: The crystallite form CS3 of compound I of the present disclosure and free form Form A in CN105849100A are prepared into saturated solutions in pH-5.0 FeSSIF (Fed state simulated intestinal fluids) and pH=6.5 FaSSIF (Fasted state simulated intestinal fluids). The content of the sample in the saturated solution was determined by high performance liquid chromatography (HPLC) after equlibrated for 1, 4 and 24 hours.

[3] = Dynamic solubility in water (Example 11); format: physicochemical
Experimental: 12 mg of hydrochloride Form CS3 prepared in the present disclosure and the hydrochloride Form A in CN105849100A were accurately weighed and placed in vials, followed by adding 1.2 mL of water. The samples were rotated at 30 rpm on a rotator and sampled at 1 hour, 4 hours, and 24 hours. After centrifugation with 0.45 urn polytetrafluoroethylene (PTFE) filters, the filtrates were collected for HPLC analysis.

[4] = Dynamic solubility, saturated solution in pure water (Example 17); format: physicochemical; settings: for Solubility: pure water
Experimental: Hydrochloride Form CS4 of the present disclosure and hydrochloride Form A in CN105849100A were prepared into saturated solution in pure water. The content of the sample in the saturated solution was determined by high performance liquid chromatography (HPLC) after 1, 4 and 24 hours. The solubility data of hydrochloride Form CS4 of the present disclosure and hydrochloride Form A in CN105849100A are shown in Table 12.

[5] = Mechanical stability (grinding, XRPD); format: physicochemical; settings: ground in an agate mortar for about 2 minutes
Experimental: About 10 mg of hydrochloride Form CS1 of the present disclosure was taken and ground in an agate mortar for about 2 minutes.

[6] = tested on: influenza virus infection; settings: Completed Phase IIa studies; cited from earlier work
[7] = Phase I studies; cited from earlier work
[8] = 25° C./60% RH, Five months, open dish
[9] = 40° C./75% RH, Five months, open dish

O=C(O)[C@H]1C2CCC(CC2)[C@@H]1Nc1nc(-c2c[nH]c3ncc(F)cc23)ncc1F [Form CS3 of Compound I]
Change of crystalline form [1, 8]: Five months Unchanged
Purity after storage [1, 8]: 99.28%
time for which the form is stable ([1]; 25° C./60% RH, listed as Crystalline form CS3 of compound I): at least 5 months
time for which the form is stable ([1]; 25° C./60% RH, listed as crystalline form CS3 of compound I): at least 5 months
Change of crystalline form [1, 9]: Five months Unchanged
Purity after storage [1, 9]: 99.26%
time for which the form is stable ([1]; 40° C./75% RH, listed as Crystalline form CS3 of compound I): at least 5 month
time for which the form is stable ([1]; 40° C./75% RH, listed as crystalline form CS3 of compound I): at least 5 month
Solubility FaSSIF ([2]; FaSSIF pH=6.5, 1 hour): 110 µg/mL (≈ 275 µM)
Solubility FaSSIF ([2]; FaSSIF pH=6.5, 4 hours): 210 µg/mL (≈ 526 µM)
Solubility FaSSIF ([2]; FaSSIF pH=6.5, 24 hours): 200 µg/mL (≈ 501 µM)
solubility, times higher than Form A in CN105849100A ([2]; FaSSIF, 1, 4 and 24 hours): 6-16 times
Solubility FeSSIF ([2]; FeSSIF pH 5.0, 1 hour): 210 µg/mL (≈ 526 µM)
Solubility FeSSIF ([2]; FeSSIF pH 5.0, 4 hours): 290 µg/mL (≈ 726 µM)
Solubility FeSSIF ([2]; FeSSIF pH 5.0, 24 hours): 250 µg/mL (≈ 626 µM)
solubility, times higher than Form A in CN105849100A ([2]; FeSSIF, 1, 4 and 24 hours): 4-11 times

O=C(O)[C@H]1C2CCC(CC2)[C@@H]1Nc1nc(-c2c[nH]c3ncc(F)cc23)ncc1F [Free Form Form A in CN105849100A, reference compound]
Solubility FaSSIF ([2]; FaSSIF pH=6.5, 1 hour): 7 µg/mL (≈ 17.5 µM)
Solubility FaSSIF ([2]; FaSSIF pH=6.5, 4 hours): 13 µg/mL (≈ 32.5 µM)
Solubility FaSSIF ([2]; FaSSIF pH=6.5, 24 hours): 31 µg/mL (≈ 77.6 µM)
Solubility FeSSIF ([2]; FeSSIF pH 5.0, 1 hour): 18 µg/mL (≈ 45.1 µM)
Solubility FeSSIF ([2]; FeSSIF pH 5.0, 4 hours): 30 µg/mL (≈ 75.1 µM)
Solubility FeSSIF ([2]; FeSSIF pH 5.0, 24 hours): 57 µg/mL (≈ 143 µM)

O=C(O)[C@H]1C2CCC(CC2)[C@@H]1Nc1nc(-c2c[nH]c3ncc(F)cc23)ncc1F [Hydrochloride Form A in CN105849100A, reference compound]
Solubility ([3]; 1 hour): 0.3 µg/mL
Solubility ([3]; 4 hours): 0.9 µg/mL
Solubility ([3]; 24 hours): 2.5 µg/mL
Solubility ([4]; 1 hour): 0.3 µg/mL
Solubility ([4]; 4 hours): 0.9 µg/mL
Solubility ([4]; 24 hours): 2.5 µg/mL

O=C(O)[C@H]1C2CCC(CC2)[C@@H]1Nc1nc(-c2c[nH]c3ncc(F)cc23)ncc1F [Hydrochloride Form CS1]
time for which the form is stable ([1]; 25° C./60% RH): at least 1 months
Change of crystalline form ([1]; 25° C./60% RH, One month): Unchanged
time for which the form is stable ([1]; 25° C./60% RH, listed as hydrochloride Form CS1): at least 1 months
time for which the form is stable ([1]; 40° C./75% RH): at least 1 month
Change of crystalline form ([1]; 40° C./75% RH, One month): Unchanged
time for which the form is stable ([1]; 40° C./75% RH, listed as hydrochloride Form CS1): at least 1 month
purities after storage [1]: above 98%
crystalline form change after grinding [5]: no form change is observed; also recorded: No crystalline form change

O=C(O)[C@H]1C2CCC(CC2)[C@@H]1Nc1nc(-c2c[nH]c3ncc(F)cc23)ncc1F [Hydrochloride Form CS3]
Solubility ([3]; 1 hour): 2.5 µg/mL
Solubility ([3]; 4 hours): 46.0 µg/mL
Solubility ([3]; 24 hours): 15.0 µg/mL
solubility, times higher than hydrochloride Form A in CN105849100A ([3]; after 1, 4 and 24 hours): 6-51 times
Change of crystalline form ([1]; 25° C./60% RH, Seven months, open dish): Unchanged
time for which the form is stable ([1]; 25° C./60% RH, listed as hydrochloride Form CS3): at least 7 months
time for which the form is stable ([1]; 40° C./75% RH, listed as hydrochloride Form CS3): at least 1 month
time for which the form is stable ([1]; 60° C./75% RH): at least 2 weeks
Change of crystalline form ([1]; 60° C./75% RH, Two weeks, open dish): Unchanged
purities after storage [1]: above 98%

O=C(O)[C@H]1C2CCC(CC2)[C@@H]1Nc1nc(-c2c[nH]c3ncc(F)cc23)ncc1F [Hydrochloride Form CS4]
Solubility ([4]; 1 hour): 85 µg/mL
Solubility ([4]; 4 hours): 75 µg/mL
Solubility ([4]; 24 hours): 94 µg/mL
solubility, times higher than hydrochloride Form A of CN105849100A ([4]; water, after 1, 4 and 24 hours): 38-283 times
Change of crystalline form ([1]; 25° C./60% RH, Two weeks, open dish): Unchanged
time for which the form is stable ([1]; 25° C./60% RH, listed as hydrochloride Form CS4): at least 2 weeks
time for which the form is stable ([1]; 40° C./75% RH, listed as hydrochloride Form CS4): at least 1 month
purities after storage [1]: above 98%

O=C(O)[C@H]1C2CCC(CC2)[C@@H]1Nc1nc(-c2c[nH]c3ncc(F)cc23)ncc1F [VX-787, (2S,3S)-3-((5-Huoro-2-(5-fluoro-1.171-pyrrolo[2,3-b]pyridin-3-yl)pyrimidin-4-yl)amino) bicyclo[2.2.2]octane-2-carboxylic acid]
virological and clinical evaluation of influenza virus infection [6]: statistical significance
tolerance [7]: good tolerance
